Measurements taken from paper doi:10.1101/2023.01.08.523168v1 (biorxiv, 2023).
Residues, ends and D or L forms follow the SMILES beside them. *: point of attachment. Oxazole(5-CO) = O=C(c1cnco1)*

Target: T1, NanoLuc-ENL (ENL YEATS-NanoLuc luciferase fusion protein) (Homo sapiens, UniProt Q03111)
T1 sequence (Q03111 1-148): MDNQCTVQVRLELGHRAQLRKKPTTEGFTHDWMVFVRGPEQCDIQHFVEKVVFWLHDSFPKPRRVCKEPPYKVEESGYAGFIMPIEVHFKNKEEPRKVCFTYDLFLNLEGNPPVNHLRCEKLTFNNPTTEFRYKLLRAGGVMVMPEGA
Assay: NanoBRET tracer displacement in HEK293T cells
Type: cell-based
Conditions: HEK-293T, read-out: % inhibition at 40 μM

inhibition at 40 µM: ~50%
SMILES: CC(=O)N[C@H](C(=O)N[C@@H](Cc1ccc(O)cc1)C(=O)N[C@@H](CS)C(=O)N[C@@H](Cc1ccc(O)cc1)C(=O)N[C@@H](CCCCNC(=O)c1cnco1)C(N)=O)C(C)C [tENL-S1o] (Ac-VYCYK(Oxazole(5-CO))-NH2)
